# Peptide text beside a SMILES is read from it. * marks the point of attachment. Myristoyl = CCCCCCCCCCCCCC(=O)*
# Legend:
# B6D2F 1 mouse embryos = test: Embryo development after transfer with peptide-supplemented medium (Example 7); format: in vivo; details: blastocysts in KSOM medium with 32 µM Iznm-2, transferred to pseudopregnant ICR mice, examined at E14
# Experimental: In order to examine the effect of the peptide medicament on embryo development, the following experiment was performed. ICR male mice at 8 weeks of age were vasectomized. ICR female mice in proestrus were mated with the vasectomized male mice, and the female mice having developed a copulation plug on the following day were used as pseudopregnant female mice. Two days after confirming the presence of the copulation plug, B6D2F 1 mouse embryos that had developed into blastocysts were transferred to the female mice. The blastocysts were added to KSOM medium supplemented with 32 µM Iznm-2 immediately before the transfer, and the embryos were transferred together with the medium. The amount of the medium injected into the uterus at the time of transfer was 5 µl or less. The embryo transfer was performed in the following manner. The pseudopregnant female mice were anesthetized, and the skin on one side in the dorsum and the abdominal wall of each mouse were incised to expose the uterus to the outside of the body. The uterus was pierced through with a 26-G needle, and the embryos were injected into the thus-formed hole together with the medium using a glass tube. After the transfer, the uterus was returned to the body, and the incision was sutured. The transferred embryos were allowed to develop in the recipient mice until E14. […]
# [1] = Blood tests on maternal bodies after intraperitoneal administration; format: in vivo; details: female mice, 8 µM with respect to total weight, in corn oil, blood 24 hours after administration
# Experimental: An excess amount of Iznm-2 was administered intraperitoneally to female mice to examine the side effects of the peptide medicament. In Example 8, […] Iznm-2 was administered together with 5 µl or less of the embryos to the uterus of each mouse. In the present experiment, Iznm-2 was administered in such a manner that the concentration thereof would be 8 µM with respect to the total weight of each mouse. Iznm-2 was dissolved in corn oil. As a control, corn oil without the peptide medicament was administered. Blood samples were collected 24 hours after the administration, and blood components serving as indicators of the condition of the liver and kidney were analyzed.
smiles,measurement,setting,value
"CCCCCCCCCCCCCC(=O)N[C@@H](CCCCN)C(=O)N[C@@H](Cc1ccccc1)C(=O)N[C@@H](CCC(=O)O)C(=O)N[C@@H](CCC(=O)O)C(=O)N[C@@H](CCC(=O)O)C(=O)N[C@@H](CCCNC(=N)N)C(=O)N[C@@H](CO)C(=O)N[C@@H](CCCNC(=N)N)C(=O)N[C@@H](CS)C(=O)N[C@@H](CCCCN)C(=O)N[C@@H](Cc1c[nH]c2ccccc12)C(=O)N[C@@H](CCSC)C(=O)N[C@H](C(=O)O)[C@@H](C)O [Iznm-2, Myr-KFEEERSRCKWMT] (Myristoyl-KFEEERSRCKWMT-OH)",development of transferred embryos,B6D2F 1 mouse embryos,developed normally
same,CRE,[1]; Kidney,0.12 mg/dL
same,LAP,[1]; Liver & Kidney,26 IU/L
same,TP,[1]; Liver & Kidney,5.1 g/dL
same,A/G,[1]; Liver,1.85
same,ALB,[1]; Liver,3.3 g/dL
same,ALP,[1]; Liver,463 IU/L
same,ALT,[1]; Liver,38 IU/L
same,ChE,[1]; Liver,32.5 IU/L
same,D-BIL,[1]; Liver,0.02 mg/dL
same,I-BIL,[1]; Liver,0.02 mg/dL
same,T-BIL,[1]; Liver,0.08 mg/dL
same,γ-GT,[1]; Liver,3 IU/L

# Source: patent EP4620480A1, “IMPLANTATION FACILITATOR, AND SCREENING SYSTEM THEREFOR” (Kansai Medical University Educational Corporation, priority 2022, dated 2025)
